This note sets out measurements from US20240415819A1, “MACROCYCLIC COMPOUNDS AS PROTEASOME SUBUNIT BETA TYPE-5 INHIBITORS” (Lead Discovery Center GmbH, priority 2021, published 2024).

Structures are written as SMILES. Bounds are passed on as bounds.

Experiment [1] concerns MM1 S (B lymphoblast cell line). As to the kind of experiment: 48 hr CTG viability assay, MM1S. The class given is cell-based. The following applies: Homo sapiens, 48 hr CTG, read-out: MM1S IC50. In a few lines:
(§1)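 Growth inhibition by compound over 48 h; IC50 (nM) derived from duplicate CellTiter-Glo luminescence readings across 0.0015–10 uM.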

Experiment [2] deals with RPMI 8226 (B lymphocyte cell line, multiple myeloma). As to the kind of experiment: 48 hr CTG viability assay, RPMI 8226. The experiment is classed as cell-based. The note with it: Homo sapiens, RPMI-8226; 48 hr CTG; read-out: RPMI-8226 IC50. A digest of the protocol:
as §1

Experiment [3] relates to Hs 746T (human gastric carcinoma cell line). As to the kind of experiment: 48 hr CTG viability assay, Hs 746T. The experiment is classed as cell-based. The note with it: Hs746T, 48 hr CTG, read-out: Hs 746T IC50. The method, then:
A viability assay was conducted for 48 hours to evaluate the inhibition of cancer cell growth by proteasome inhibitors. Briefly, the candidate cell line was plated with a 96-well plate following density of cells, respectively. 6×10^3 Cells/well for A2780 (human ovarian cancer cell line) and MDA-MB-468 (breast carcinoma), 8×10^3 Cells/well for Hs746T (human gastric carcinoma cell line), 1.1×10^4 Cells/well for MM1 S and RPMI 8226 (multiple myeloma). After 24 hours, the cells were treated with various concentrations of the compound (ranging from 0.0015 uM to 10 uM). […] After 48 hours of incubation at 37° C., 5% CO2 incubator, cells were analyzed for viability using the CellTiter-Glo Luminescent Cell Viability assay (Promega, Cat #G7570). All viability assays were performed in duplicate and Luminescence was read using an Envision (Perkin Elmer, USA). Data were analyzed using XLfit software. […] (human gastric carcinoma cell line), MM1 S (B lymphoblast cell line), and RPMI 8226 (B lymphocyte cell line, multiple myeloma). Inhibition is indicated as IC50 [nM] (“-”=not measured).

Experiment [4] has as its system A549 (human lung carcinoma cell line). In words: Glo assay of A549 cells (Table 3; ProteasomeGlo plating scheme). The class given is cell-based. The following applies: Homo sapiens; A549 cells; read-out: PGLo A549. A digest of the protocol: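 IC50 values (nM) come from a cell-based chymotrypsin-like Proteasome-Glo luminescence assay. Compound exposure ran 105 min at 37° C.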

The target of experiment [5] is T1, β5 subunit of the human constitutive proteasome (CPS) (Homo sapiens, UniProt P28074).
T1 construct: purchased Boston Biochem E-360
As to the kind of experiment: β5 inhibition assay, human constitutive proteasome (Suc-LLVY-AMC). The experiment is classed as biochemical. The following applies: IC50 class, Suc-LLVY-AMC substrate. The method, then:
The enzymatic activity of the β5 subunit of the human constitutive proteasome (CPS) is analyzed. In another assay, which differs from the assay of the human constitutive proteasome only in using the human immunoproteasome (IPS) the enzymatic activity of the β5 subunit of the human immunoproteasome (IPS) is analyzed. […] Inhibition is indicated as IC50 [nM] (“-”=not measured).

In experiment [6] the target is T2, β5 subunit of the human immunoproteasome (IPS) (Homo sapiens, UniProt P28062).
T2 construct: purchased Boston Biochem E-370
In words: β5 inhibition assay, human immunoproteasome (Suc-LLVY-AMC). The experiment is classed as biochemical. The following applies: IC50 class, Suc-LLVY-AMC substrate. A digest of the protocol:
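Human immunoproteasome (1 nM final) was preincubated 10 min at RT with compound in 100 mM HEPES pH 7.5, 50 mM NaCl, 0.02% SDS, 1 mM DTT. Suc-LLVY-AMC (22.6 μM final) was then added for 4 h at RT in the dark. After stopping with 1 μM bortezomib, AMC fluorescence was read (ex 355/em 460 nm).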

As to `Cc1ccc2cc1CNC(=O)[C@H](CCc1ccccc1)NC(=O)[C@@H](NC(=O)CCNCc1ccc(-c3ccncc3)cc1)CC(=O)N1CCCC(CCO2)C1` (stereo partly drawn) [Compound 603, N-((9S,12S)-5^4-methyl-8,11,14-trioxo-9-phenethyl-4-oxa-7,10-diaza-1(3,1)-piperidina-5(1,3)-benzenacyclotetradecaphane-12-yl)-3-((4-(pyridin-4-yl)benzyl)amino)propanamide], the IC50 in experiment [1], in experiment [2], in experiment [3], in experiment [4], in experiment [5] and in experiment [6] was less than 0.1 µM each time.

Turning to `Cc1ccc2cc1CNC(=O)[C@H](CCc1ccccc1)NC(=O)[C@@H](NC(=O)CCNC(=O)c1ccc(N3CCOCC3)cc1)CC(=O)N1CCCC(CCO2)C1` (stereo partly drawn) [Compound 604, N-(3-(((9S,12S)-5^4-methyl-8,11,14-trioxo-9-phenethyl-4-oxa-7,10-diaza-1(3,1)-piperidina-5(1,3)-benzenacyclotetradecaphane-12-yl)amino)-3-oxopropyl)-4-morpholinobenzamide], the IC50 in experiment [1], in experiment [2], in experiment [3], in experiment [4], in experiment [5] and in experiment [6] was less than 0.1 µM in each case.

As to `Cc1ccc2cc1CNC(=O)[C@H](CCc1ccccc1)NC(=O)[C@@H](NC(=O)C1CC3CCC(C1)N3C(=O)OC(C)(C)C)CC(=O)N1CCCC(CCO2)C1` (stereo partly drawn) [Compound 605, tert-butyl 3-(((9S,12S)-5^4-methyl-8,11,14-trioxo-9-phenethyl-4-oxa-7,10-diaza-1(3,1)-piperidina-5(1,3)-benzenacyclotetradecaphane-12-yl)carbamoyl)-8-azabicyclo[3.2.1]octane-8-carboxylate], the IC50 was less than 0.1 µM in experiment [1]; less than 0.1 µM in experiment [2]; 0.1 to 0.5 µM in experiment [3]; less than 0.1 µM in experiment [4]; less than 0.1 µM in experiment [5]; less than 0.1 µM in experiment [6].

`COc1ccc(CCCOCCC(=O)N[C@H]2CC(=O)N3CCCC(CCOc4ccc(C)c(c4)CNC(=O)[C@H](CCc4ccccc4)NC2=O)C3)cc1` (stereo partly drawn) [Compound 606, 3-(3-(4-methoxyphenyl)propoxy)-N-((9S,12S)-5^4-methyl-8,11,14-trioxo-9-phenethyl-4-oxa-7,10-diaza-1(3,1)-piperidina-5(1,3)-benzenacyclotetradecaphane-12-yl)propanamide]: the IC50 in experiment [1], in experiment [2], in experiment [3], in experiment [4], in experiment [5] and in experiment [6] was less than 0.1 µM in each case.

With `COc1cccc(CCCOCCC(=O)N[C@H]2CC(=O)N3CCCC(CCOc4ccc(C)c(c4)CNC(=O)[C@H](CCc4ccccc4)NC2=O)C3)c1` (stereo partly drawn) [Compound 607, 3-(3-(3-methoxyphenyl)propoxy)-N-((9S,12S)-5^4-methyl-8,11,14-trioxo-9-phenethyl-4-oxa-7,10-diaza-1(3,1)-piperidina-5(1,3)-benzenacyclotetradecaphane-12-yl)propanamide], the IC50 in experiment [1], in experiment [2], in experiment [3], in experiment [4], in experiment [5] and in experiment [6] was less than 0.1 µM in each case.

`Cc1ccc2cc1CNC(=O)[C@H](CCc1ccccc1)NC(=O)[C@@H](NC(=O)CCN1CCC3(CCCCC3)CC1)CC(=O)N1CCCC(CCO2)C1` (stereo partly drawn) [Compound 608, N-((9S,12S)-5^4-methyl-8,11,14-trioxo-9-phenethyl-4-oxa-7,10-diaza-1(3,1)-piperidina-5(1,3)-benzenacyclotetradecaphane-12-yl)-3-(3-azaspiro[5.5]undecan-3-yl)propanamide]: the IC50 in experiment [1], in experiment [2], in experiment [3], in experiment [4], in experiment [5] and in experiment [6] was less than 0.1 µM throughout.

As for `Cc1ccc2cc1CNC(=O)[C@H](CCc1ccccc1)NC(=O)[C@@H](NC(=O)C(C)(C)c1ccc3ncccc3c1)CC(=O)N1CCCC(CCO2)C1` (stereo partly drawn) [Compound 609, 2-methyl-N-((9S,12S)-5^4-methyl-8,11,14-trioxo-9-phenethyl-4-oxa-7,10-diaza-1(3,1)-piperidina-5(1,3)-benzenacyclotetradecaphane-12-yl)-2-(quinolin-6-yl)propanamide], the IC50 in experiment [1], in experiment [2], in experiment [3], in experiment [4], in experiment [5] and in experiment [6] was less than 0.1 µM in each case.

As for `COc1ccc(CCOCCC(=O)N[C@H]2CC(=O)N3CCCC(CCOc4ccc(C)c(c4)CNC(=O)[C@H](CCc4ccccc4)NC2=O)C3)cc1` (stereo partly drawn) [Compound 610, 3-(4-methoxyphenethoxy)-N-((9S,12S)-5^4-methyl-8,11,14-trioxo-9-phenethyl-4-oxa-7,10-diaza-1(3,1)-piperidina-5(1,3)-benzenacyclotetradecaphane-12-yl)propanamide], the IC50 in experiment [1], in experiment [2], in experiment [3], in experiment [4], in experiment [5] and in experiment [6] was less than 0.1 µM throughout.

As for `Cc1ccc2cc1CNC(=O)[C@H](CCc1ccccc1)NC(=O)[C@@H](NC(=O)CCN1CCC3(CCOCC3)CC1)CC(=O)N1CCCC(CCO2)C1` (stereo partly drawn) [Compound 611, N-((9S,12S)-5^4-methyl-8,11,14-trioxo-9-phenethyl-4-oxa-7,10-diaza-1(3,1)-piperidina-5(1,3)-benzenacyclotetradecaphane-12-yl)-3-(3-oxa-9-azaspiro[5.5]undecan-9-yl)propanamide], the IC50 in experiment [1], in experiment [2], in experiment [3], in experiment [4], in experiment [5] and in experiment [6] was less than 0.1 µM in each case.

Turning to `Cc1ccc2cc1CNC(=O)[C@H](CCc1ccccc1)NC(=O)[C@@H](NC(=O)CCOCCCc1ccccc1)CC(=O)N1CCCC(CCO2)C1` (stereo partly drawn) [Compound 612, N-((9S,12S)-5^4-methyl-8,11,14-trioxo-9-phenethyl-4-oxa-7,10-diaza-1(3,1)-piperidina-5(1,3)-benzenacyclotetradecaphane-12-yl)-3-(3-phenylpropoxy)propanamide], the IC50 in experiment [1], in experiment [2], in experiment [3], in experiment [4], in experiment [5] and in experiment [6] was less than 0.1 µM each time.

As for `Cc1ccc2cc1CNC(=O)[C@H](CCc1ccccc1)NC(=O)[C@@H](NC(=O)CCN1CCC3(CCCC3)CC1)CC(=O)N1CCCC(CCO2)C1` (stereo partly drawn) [Compound 613, N-((9S,12S)-5^4-methyl-8,11,14-trioxo-9-phenethyl-4-oxa-7,10-diaza-1(3,1)-piperidina-5(1,3)-benzenacyclotetradecaphane-12-yl)-3-(8-azaspiro[4.5]decan-8-yl)propanamide], the IC50 in experiment [1], in experiment [2], in experiment [3], in experiment [4], in experiment [5] and in experiment [6] was less than 0.1 µM each time.

For `Cc1ccc2cc1CNC(=O)[C@H](CCc1ccccc1)NC(=O)[C@@H](NC(=O)CCOCC1CC3CCC1C3)CC(=O)N1CCCC(CCO2)C1` (stereo partly drawn) [Compound 614, 3-(bicyclo[2.2.1]heptan-2-ylmethoxy)-N-((9S,12S)-5^4-methyl-8,11,14-trioxo-9-phenethyl-4-oxa-7,10-diaza-1(3,1)-piperidina-5(1,3)-benzenacyclotetradecaphane-12-yl)propanamide], the IC50 in experiment [1], in experiment [2], in experiment [3], in experiment [4], in experiment [5] and in experiment [6] was less than 0.1 µM each time.
